{
  "source": "patent US9420794B2",
  "about": "“Herbicidal composition” (ISHIHARA SANGYO KAISHA, LTD., priority 2012, dated 2016)",
  "format_in_all_cases": "in vivo",
  "key": {"[1]": {"test_system": "annual ragweed (Ambrosia artemisiifolia L.)", "assay": "Test Example 3: pot test, foliar treatment, growth inhibition of annual ragweed", "conditions": "read-out: Growth inhibition rate of annual ragweed (%) Measured value", "method": "(§1) Growth inhibition rate (%)=0 (equivalent to the non-treated area) to 100 (complete kill)\nUpland field soil was put into a 1/1,000,000 ha pot, and seeds of annual ragweed (Ambrosia artemisiifolia L.) were sown. When the annual ragweed reached 6.0 to 8.0-leaf stage, predetermined amounts of ONEHOPE NYUZAI (tradename), Clio (tradename) and Spectrum (tradename) were diluted with water (in an amount corresponding to 300 L/ha) and applied for foliar treatment by a small sprayer.\n(§2) On the 20 th day after treatment, the state of growth of the annual ragweed was visually observed to determine the growth inhibition rate (%). The growth inhibition rate (%) (measured value) and the growth inhibition rate (%) calculated in the same manner as in the above Test Example 1 are shown in Table 3."}, "[2]": {"test_system": "wild oat (Avena fatua L.)", "assay": "Test Example 4: pot test, soil treatment, growth inhibition of wild oat", "conditions": "read-out: Growth inhibition rate of wild oat (%) Measured value", "method": "as §1\n(§3) Upland field soil was put into a 1/160,000 ha pot, and seeds of wild oat (Avena fatua L.) were sown. On the next day, predetermined amounts of ONEHOPE NYUZAI (tradename), Clio (tradename) and Spectrum (tradename) were diluted with water (in an amount corresponding to 300 L/ha) and applied for soil treatment by a small sprayer.\nas §2, with “28” for “20”, “wild oat” for “annual ragweed”, “4.” for “3.”"}, "[3]": {"test_system": "korean lespedeza (Kummerowia stipulacea (Maxim.) Makino)", "assay": "Test Example 2: pot test, soil treatment, growth inhibition of korean lespedeza", "conditions": "read-out: Growth inhibition rate of korean lespedeza (%) Measured value", "method": "as §1\nas §3, with “korean lespedeza (Kummerowia stipulacea (Maxim.) Makino)” for “wild oat (Avena fatua L.)”\nas §2, with “14th” for “20 th”, “korean lespedeza” for “annual ragweed”, “2.” for “3.”"}, "[4]": {"test_system": "velvetleaf (Abutilon theophrasti Medic.)", "assay": "Test Example 1: pot test, soil treatment, growth inhibition of velvetleaf", "conditions": "read-out: Growth inhibition rate of velvetleaf (%) Measured value", "description": "Upland field soil was put into a 1/300,000 ha pot, and seeds of velvetleaf (Abutilon theophrasti Medic.) were sown. On the next day, predetermined amounts of a flowable containing nicosulfuron as an active ingredient (tradename: ONEHOPE NYUZAI, manufactured by Ishihara Sangyo Kaisha, Ltd.), an emulsifiable concentrate containing dimethenamid-P as an active ingredient (tradename: Spectrum, manufactured by BASF) and a flowable containing topramezone as an active ingredient (tradename: Clio, manufactured by BASF) were diluted with water (in an amount corresponding to 1,000 L/ha) and applied for soil treatment by a small sprayer.\nOn the 28th day after treatment, the state of growth of the velvetleaf was visually observed to determine the growth inhibition rate (%) in accordance with the following evaluation standard. The growth inhibition rate (%) (measured value) and the growth inhibition rate (%) (calculated value) calculated by the Colby's formula are shown in Table 1.\nas §1"}},
  "note": "Read-outs that look alike come from different tables or passages of the source.",
  "data": [
    {"smiles": "COC[C@H](C)N(C(=O)CCl)c1c(C)csc1C", "note": "[Dimethenamid-P, (S)-2-chloro-N-(2,4-dimethyl-3-thienyl)-N-(2-methoxy-1-methylethyl)acetamide]", "values": [
      {"measurement": "inhibition at 500 g/ha", "setting": "[1]; dose 500 g/ha, foliar treatment at 6.0 to 8.0-leaf stage, 20th day after treatment", "value": 0, "unit": "%"},
      {"measurement": "inhibition at 1000 g/ha", "setting": "[1]; dose 1000 g/ha, foliar treatment at 6.0 to 8.0-leaf stage, 20th day after treatment", "value": 0, "unit": "%"},
      {"measurement": "inhibition at 250 g/ha", "setting": "[2]; dose 250 g/ha, soil treatment, 28th day after treatment", "value": 60, "unit": "%"},
      {"measurement": "inhibition at 250 g/ha", "setting": "[3]; dose 250 g/ha, soil treatment, 14th day after treatment", "value": 30, "unit": "%"},
      {"measurement": "inhibition at 1500 g/ha", "setting": "[3]; dose 1500 g/ha, soil treatment, 14th day after treatment", "value": 30, "unit": "%"},
      {"measurement": "inhibition at 500 g/ha", "setting": "[4]; dose 500 g/ha, soil treatment, 28th day after treatment", "value": 20, "unit": "%"}
    ]},
    {"smiles": "COc1cc(OC)nc(NC(=O)NS(=O)(=O)c2ncccc2C(=O)N(C)C)n1", "note": "[Nicosulfuron, 2-(4,6-dimethoxypyrimidin-2-ylcarbamoylsulfamoyl)-N,N-dimethylnicotinamide]", "values": [
      {"measurement": "inhibition at 30 g/ha", "setting": "[1]; dose 30 g/ha, foliar treatment at 6.0 to 8.0-leaf stage, 20th day after treatment", "value": 13, "unit": "%"},
      {"measurement": "inhibition at 100 g/ha", "setting": "[2]; dose 100 g/ha, soil treatment, 28th day after treatment", "value": 60, "unit": "%"},
      {"measurement": "inhibition at 10 g/ha", "setting": "[3]; dose 10 g/ha, soil treatment, 14th day after treatment", "value": 0, "unit": "%"},
      {"measurement": "inhibition at 100 g/ha", "setting": "[3]; dose 100 g/ha, soil treatment, 14th day after treatment", "value": 10, "unit": "%"},
      {"measurement": "inhibition at 15 g/ha", "setting": "[4]; dose 15 g/ha, soil treatment, 28th day after treatment", "value": 0, "unit": "%"}
    ]},
    {"smiles": "Cc1c(C(=O)c2cnn(C)c2O)ccc(S(C)(=O)=O)c1C1=NOCC1", "note": "[Topramezone, [3-(4,5-dihydro-1,2-oxazol-3-yl)-4-mesyl-o-tolyl](5-hydroxy-1-methylpyrazol-4-yl)methanone]", "values": [
      {"measurement": "inhibition at 20 g/ha", "setting": "[1]; foliar", "value": 40, "unit": "%"},
      {"measurement": "inhibition at 50 g/ha", "setting": "[1]; foliar", "value": 65, "unit": "%"},
      {"measurement": "inhibition at 15 g/ha", "setting": "[2]; soil", "value": 0, "unit": "%"},
      {"measurement": "inhibition at 15 g/ha", "setting": "[3]; soil", "value": 0, "unit": "%"},
      {"measurement": "inhibition at 100 g/ha", "setting": "[3]; soil", "value": 10, "unit": "%"},
      {"measurement": "inhibition at 20 g/ha", "setting": "[4]; soil", "value": 60, "unit": "%"}
    ]}
  ]
}
